Assay results taken from ChEMBL document CHEMBL1909046, “DrugMatrix in vitro pharmacology data”.

Tests used:
[1] = DRUGMATRIX: Atrial Natriuretic Factor (ANF) radioligand binding (ligand: [125I] ANF (rat)); format: cell membranes, Cavia porcellus, Dunkin-Hartley, Adrenal gland, Membrane; settings: Not Active = under 50% inhibition at 10 µM
[2] = molecular target: T1, 5-hydroxytryptamine receptor 2C (Homo sapiens, UniProt P28335); test: DRUGMATRIX: Serotonin (5-Hydroxytryptamine) 5-HT2C radioligand binding (ligand: [3H] Mesulergine); format: cell membranes, CHO-K1, Membrane; settings: cho-k1; Not Active = under 50% inhibition at 10 µM
T1 sequence (P28335 whole entry): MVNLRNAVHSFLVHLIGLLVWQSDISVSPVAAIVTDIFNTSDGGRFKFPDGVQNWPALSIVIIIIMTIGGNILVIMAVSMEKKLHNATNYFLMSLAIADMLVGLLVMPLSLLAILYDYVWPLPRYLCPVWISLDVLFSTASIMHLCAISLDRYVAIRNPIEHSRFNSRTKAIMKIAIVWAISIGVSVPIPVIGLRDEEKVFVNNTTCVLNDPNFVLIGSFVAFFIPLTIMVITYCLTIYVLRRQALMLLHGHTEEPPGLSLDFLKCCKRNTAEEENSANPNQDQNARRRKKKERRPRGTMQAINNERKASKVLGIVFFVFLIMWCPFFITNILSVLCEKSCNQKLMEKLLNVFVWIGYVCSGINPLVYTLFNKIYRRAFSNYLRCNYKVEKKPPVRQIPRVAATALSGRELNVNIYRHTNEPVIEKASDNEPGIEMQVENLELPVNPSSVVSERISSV

[3] = DRUGMATRIX: Tumor Necrosis Factor (TNF), Non-Selective radioligand binding (ligand: [125I] TNF-alpha); format: cell membranes, Membrane; settings: u-937; Not Active = under 50% inhibition at 10 µM
[4] = molecular target: Sodium-dependent dopamine transporter (Homo sapiens, UniProt Q01959); test: DRUGMATRIX: Dopamine Transporter radioligand binding (ligand: [125I] RTI-55); format: cell membranes, CHO-K1, Membrane; settings: cho-k1; Not Active = under 50% inhibition at 10 µM
Sodium-dependent dopamine transporter, sequence (Q01959 whole entry): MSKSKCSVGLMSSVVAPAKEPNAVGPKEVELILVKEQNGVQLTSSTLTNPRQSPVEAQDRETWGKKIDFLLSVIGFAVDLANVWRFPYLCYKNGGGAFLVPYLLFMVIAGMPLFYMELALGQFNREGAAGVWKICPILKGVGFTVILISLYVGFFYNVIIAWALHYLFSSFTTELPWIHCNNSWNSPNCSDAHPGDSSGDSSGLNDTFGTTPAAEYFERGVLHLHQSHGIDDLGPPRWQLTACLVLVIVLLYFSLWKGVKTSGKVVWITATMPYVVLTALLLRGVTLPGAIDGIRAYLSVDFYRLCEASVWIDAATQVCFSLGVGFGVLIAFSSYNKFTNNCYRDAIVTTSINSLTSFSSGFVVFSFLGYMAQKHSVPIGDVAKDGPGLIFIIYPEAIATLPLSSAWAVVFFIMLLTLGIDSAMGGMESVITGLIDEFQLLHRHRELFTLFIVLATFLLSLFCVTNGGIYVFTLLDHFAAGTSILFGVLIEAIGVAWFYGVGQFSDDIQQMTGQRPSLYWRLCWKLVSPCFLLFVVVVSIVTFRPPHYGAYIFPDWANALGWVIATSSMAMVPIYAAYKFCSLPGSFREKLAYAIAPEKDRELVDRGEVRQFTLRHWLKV

[5] = molecular target: T2, Muscarinic acetylcholine receptor M4 (Homo sapiens, UniProt P08173); format: cell membranes, CHO-K1, Membrane; further: in other assays of this panel Not Active means under 50% inhibition at 10 µM
T2 sequence (P08173 whole entry): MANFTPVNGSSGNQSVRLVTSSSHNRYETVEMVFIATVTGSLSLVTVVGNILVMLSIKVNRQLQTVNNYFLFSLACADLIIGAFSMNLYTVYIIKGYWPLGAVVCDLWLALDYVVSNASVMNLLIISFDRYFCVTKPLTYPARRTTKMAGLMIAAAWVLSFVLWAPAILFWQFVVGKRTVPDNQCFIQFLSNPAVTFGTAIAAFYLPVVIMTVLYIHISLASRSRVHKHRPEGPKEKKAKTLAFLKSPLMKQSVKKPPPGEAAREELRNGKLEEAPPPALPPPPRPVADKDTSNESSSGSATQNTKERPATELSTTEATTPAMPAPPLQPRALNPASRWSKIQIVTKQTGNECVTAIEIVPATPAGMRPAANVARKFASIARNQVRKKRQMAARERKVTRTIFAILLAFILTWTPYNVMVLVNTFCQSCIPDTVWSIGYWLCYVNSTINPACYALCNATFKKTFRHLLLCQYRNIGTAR

[6] = molecular target: Mitogen-activated protein kinase 14 (Homo sapiens, UniProt Q16539); design: species or system Escherichia coli;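 further: inhibition of p38alpha enzyme activity in a biochemical kinase assay, with myelin basic protein serving as substrate; in other assays of this panel Not Active means under 50% inhibition at 10 µM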
Mitogen-activated protein kinase 14, sequence (Q16539 whole entry): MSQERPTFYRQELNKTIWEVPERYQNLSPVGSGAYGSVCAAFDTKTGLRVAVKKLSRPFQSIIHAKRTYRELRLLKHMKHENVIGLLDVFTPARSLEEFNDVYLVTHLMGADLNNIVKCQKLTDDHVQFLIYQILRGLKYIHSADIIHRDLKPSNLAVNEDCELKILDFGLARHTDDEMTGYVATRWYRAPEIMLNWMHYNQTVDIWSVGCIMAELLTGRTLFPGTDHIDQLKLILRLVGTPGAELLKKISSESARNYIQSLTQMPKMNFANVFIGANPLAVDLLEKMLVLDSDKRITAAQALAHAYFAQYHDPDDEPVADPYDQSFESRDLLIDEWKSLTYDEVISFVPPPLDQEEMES

SMILES | IC50 [1] | Ki [1] | IC50 [2] | IC50 [3] | Ki [3] | IC50 [4] | IC50 ([5]; cho-k1) | IC50 [6] | IC50 ([6]; read-out: IC50) | IC50 ([5]; read-out: IC50) | Ki ([5]; read-out: Ki)
Oc1ccccc1 [PHENOL] | Not Active | Not Active | Not Active | Not Active | Not Active | Not Active | Not Active | Not Active | – | – | –
Oc1ncnc2[nH]ncc12 [ALLOPURINOL] | Not Active | Not Active | Not Active | Not Active | Not Active | Not Active | Not Active | Not Active | – | – | –
COC(=O)Nc1nc2ccc(Sc3ccccc3)cc2[nH]1 [FENBENDAZOLE] | Not Active | Not Active | Not Active | Not Active | Not Active | Not Active | Not Active | – | 3.19 µM | – | –
C[C@@H]1[C@H](O)[C@@H](C)/C=C/C=C/C=C/C=C/C=C/C=C/C=C/[C@H](O[C@@H]2O[C@H](C)[C@@H](O)[C@H](N)[C@@H]2O)C[C@@H]2O[C@](O)(C[C@@H](O)C[C@@H](O)[C@H](O)CC[C@@H](O)C[C@@H](O)CC(=O)O[C@H]1C)C[C@H](O)[C@H]2C(=O)O [AMPHOTERICIN B] | Not Active | Not Active | Not Active | Not Active | Not Active | Not Active | Not Active | Not Active | – | – | –
CCO [ALCOHOL] | Not Active | Not Active | Not Active | Not Active | Not Active | Not Active | Not Active | Not Active | – | – | –
COc1cc(/C=C/C(=O)O)ccc1O [FERULATE] | Not Active | Not Active | Not Active | Not Active | Not Active | Not Active | Not Active | Not Active | – | – | –
CNC[C@H](O)c1ccc(O)c(O)c1 [EPINEPHRINE] | Not Active | Not Active | Not Active | Not Active | Not Active | Not Active | Not Active | Not Active | – | – | –
CC1(COc2ccc(CC3SC(=O)NC3=O)cc2)CCCCC1 (stereo not drawn) [CIGLITAZONE] | Not Active | Not Active | Not Active | Not Active | Not Active | Not Active | – | Not Active | – | 16.2 µM | 2.26 µM
NC(N)=Nc1nc(CSCCC(N)=NS(N)(=O)=O)cs1 [FAMOTIDINE] | Not Active | Not Active | Not Active | Not Active | Not Active | Not Active | Not Active | Not Active | – | – | –
Nc1nc(F)nc2c1ncn2[C@@H]1O[C@H](CO)[C@@H](O)[C@@H]1O [FLUDARABINE] | Not Active | Not Active | Not Active | Not Active | Not Active | Not Active | Not Active | Not Active | – | – | –
NC(=O)NC(=O)Cc1ccccc1 [PHENACEMIDE] | Not Active | Not Active | Not Active | Not Active | Not Active | Not Active | Not Active | Not Active | – | – | –
Nc1ccc(C(=O)O)c(O)c1 [AMINOSALICYLIC ACID] | Not Active | Not Active | Not Active | Not Active | Not Active | Not Active | Not Active | Not Active | – | – | –
O=c1[nH]cnc2c1ncn2[C@H]1CC[C@@H](CO)O1 [DIDANOSINE] | Not Active | Not Active | Not Active | Not Active | Not Active | Not Active | Not Active | Not Active | – | – | –
NC(=O)CN1CCCC1=O | Not Active | Not Active | Not Active | Not Active | Not Active | Not Active | Not Active | Not Active | – | – | –
